Data from patent publication US6420569B1, “Process for producing pyrone compounds” (Sumitomo Chemical Company, Limited, priority 2000, dated 2002).

Test system: houseflies (Musca domestica)
Test: Knock-down test against housefly
Assay type: in vivo
Conditions: 0.5% oil solution, 0.7 ml sprayed in 70 cm-cubic glass chamber; ten adult houseflies; 15 minutes after application; two repetitions
Protocol: (Knock-down Test Against Housefly)
A half part of 4-hydroxy-6-methyl-3-(4-methylpentanoyl)-2-pyrone was dissolved in 10 parts of dichloromethane and mixed with 89.5 parts of Isopar M (isoparaffin produced by Exxon Chemical) for preparing 0.5% oil solution. Part(s) means part(s) by weight.
Ten adult houseflies (Musca domestica) including 5 males and 5 females were released in a 70 cm-cubic glass chamber (volume: […]). By a spray-gun, 0.7 ml of the above oil solution was applied at a pressure of 0.9 kg/cm^2 from a small window on the wall of the chamber. After 15 minutes from application, knocked-down houseflies were observed. As a result of two repetitions, the knocked-down ratio was 95%.

`Cc1cc(O)c(C(=O)CCC(C)C)c(=O)o1` [4-Hydroxy-6-methyl-3-(4-methylpentanoyl)-2-pyrone] gave a knocked-down ratio of 95%.
